Measurements reported in patent US5605929A, “Methods and compositions for inhibiting 5α-reductase activity” (priority 1995, dated 1997).
Read-outs that look alike come from different tables or passages of the source.

Biological target: T1, 5α-Reductase of Rat Liver Microsomes (Rattus norvegicus, UniProt P24008)
T1 sequence (P24008 1-259): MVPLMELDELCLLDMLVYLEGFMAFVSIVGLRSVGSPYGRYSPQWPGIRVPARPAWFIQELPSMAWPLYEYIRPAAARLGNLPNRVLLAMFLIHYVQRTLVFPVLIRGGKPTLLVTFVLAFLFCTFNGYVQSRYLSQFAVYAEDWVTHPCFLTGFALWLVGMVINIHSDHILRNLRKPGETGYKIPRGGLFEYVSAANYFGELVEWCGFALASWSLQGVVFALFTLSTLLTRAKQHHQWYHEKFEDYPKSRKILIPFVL
Test: biochemical
Conditions: for inhibition at 5 µM: read-out: % Inhibition of [^3 H]4-MA binding, Table 2, 5 μM

[1] = read-out: % Inhibition of [^3 H]4-MA binding
[2] = read-out: % Inhibition of [^3 H]4-MA binding, Table 2, 10 μM
[3] = read-out: % Inhibition of [^3 H]4-MA binding, Table 2, 40 μM
[4] = read-out: % Inhibition of [^3 H]4-MA binding, Table 2, 200 μM

Experimental: Briefly, the binding assay solution, in a final volume of 0.15 ml, contained microsomes (2-20 μg of protein), 0.08 μCi of [^3 H]4-MA, 0.1 mM-NADPH, 1 mM-dithiothreitol and 50 mM-potassium phosphate, pH 7.0, with or without the indicated amount of a lipid or an inhibitor preparation. Lipids were dissolved in ethanol and added in 1-5 μl volumes. Control tubes received the same amount of ethanol. After incubation at 0° C. for 1 h, the [^3 H]4-MA bound to microsomes was determined by collecting microsomes on a Whatman GF/1F glass fibre filter and washing with 10 ml of 20 mM-potassium phosphate, pH 7.0, containing 0.01% CHAPS to remove unbound [^3 H]4-MA.
Microsomes were prepared at 4° C. from a buffered 0.32M-sucrose homogenate of human liver and from the livers of adult Sprague-Dawley female rats by differential centrifugation as described previously (Liang et al., 1990), and were used in the assay of 5α-reductase activity. In some experiments, microsomes were solubilized with 0.1% polyoxyethylene ether W-1 as described previously (Liang et al., 1990), except for the substitution of polyoxyethylene ether W-1 for Lubrol-WX.

inhibition at 40 µM [1] [%] | inhibition at 200 µM [1] [%] | inhibition at 10 µM [1] [%] | Compound | IC50 [µM] | inhibition at 5 µM [%] | inhibition at 10 µM [2] [%] | inhibition at 40 µM [3] [%] | inhibition at 200 µM [4] [%]
< 10 | 16 ± 4 |  | CCCCCC/C=C\CCCCCCCCO [Palmitoleyl alcohol] |  |  |  |  | 
 |  |  | CCCCC/C=C\C/C=C\C/C=C\CCCCCO [γ-Linolenyl Alcohol, γ-linolenyl alcohol] | > 200 | < 10 | < 10 | < 10 | 41
< 10 | 24 ± 1 | < 10 | CC/C=C\C/C=C\C/C=C\CCCCCCCCO [α-Linolenyl alcohol] |  |  |  |  | 
< 10 | 25 ± 5 | < 10 | CCCCC/C=C\C/C=C\CCCCCCCCO [Linoleyl alcohol] |  |  |  |  | 
 | 51 |  | CC/C=C\C/C=C\C/C=C\C/C=C\C/C=C\C/C=C\CCCO [cis4,7,10,13,,16,19-docosahexenol] |  |  |  |  | 
 |  |  | CCCCC/C=C/C/C=C/CCCCCCCCCC(=O)O [11,14-trans-Eicosadienoic Acid, trans 11,14-eicosadienoic acid] | > 200 | < 10 | < 10 | < 10 | < 10
 |  |  | CCCCCC/C=C\CCCCCCCCCC(=O)O [11-Octadecenoic Acid, 11-octadecenoic acid] | 26 | < 10 | 14 | 55 | 81
 |  |  | CCCCC/C=C\C/C=C\C/C=C\CCCCC(=O)OCC(COC(=O)CCCC/C=C\C/C=C\C/C=C\CCCCC)OC(=O)CCCC/C=C\C/C=C\C/C=C\CCCCC [Tri-γ-Linolenin, tri-γ-linolenin] | > 200 | < 10 | < 10 | < 10 | < 10
 |  |  | CCCCC/C=C\C/C=C\CCCCCCCCC#N [linoleyl cyanide nitrile] | > 200 |  |  |  | 
 |  |  | CCCCCCCCCCCCCC/C=C\CCCC(=O)O [5-Eicosenoic Acid, 5-eicosenoic acid] | > 200 | < 10 | < 10 | < 10 | < 10
< 10 | < 10 |  | CCCCCCCC/C=C\CCCCCCCC(=O)OC [Oleic acid methyl ester] |  |  |  |  | 
 |  |  | CCCCC/C=C\C/C=C\CCCCCCCCCC(=O)Cl [11,14-cis-Eicosaidienoyl Chloride, 11,14-eicosadienoyl chloride] | > 200 | < 10 | < 10 | < 10 | < 10
 |  |  | CCCCC/C=C\C/C=C\CCCCCCCCC(=O)O [10,13-Nonadecadienoic Acid, 10,13-nonadecadienoic acid] | 86 | < 10 | < 10 | 37 | 83
 |  |  | CCCCC/C=C\C/C=C\C/C=C\CCCCC(=O)OC [methyl γ-linolenate] | > 200 |  |  |  | 
 |  |  | CCCCC/C=C\C/C=C\CCCCCCCCCCCC(=O)O [13,16-Docosadienoic Acid, 13,16-docosadienoic acid] | 118 | < 10 | < 10 | 21 | 93
 |  |  | CCCCCC/C=C\CCCCCCCCCCC(=O)O [12-cis-Nonadecenoic Acid, 12-nonadecenoic acid] | 90 | < 10 | < 10 | 32 | 91
 |  |  | CC/C=C\C/C=C\C/C=C\CCCCCCCCCC(=O)Cl [11,14,17-cis-Eicosatrienoyl Chloride, 11,14,17-eicosatrienoyl chloride] | > 200 | < 10 | < 10 | < 10 | < 10
 | < 10 |  | CCCCCC/C=C/CCCCCCCC(=O)O [Palmitelaidic Acid] |  |  |  |  | 

Compound | inhibition at 40 µM [1] [%] | inhibition at 200 µM [1] [%] | inhibition at 10 µM [1] [%] | IC50 [µM] | inhibition at 5 µM [%] | inhibition at 10 µM [2] [%] | inhibition at 40 µM [3] [%] | inhibition at 200 µM [4] [%]
CC/C=C\C/C=C\C/C=C\CCCCCCCC(=O)OC [α-Linolenic acid methyl ester] | < 10 | < 10 | < 10 |  |  |  |  | 
